Test results reported in patent publication US20090285888A1, “DERIVATIVES OF DIHYDROXYPHENYLALANINE” (priority 2006, published 2009).

Legend:
[1] = test system: brain (striatum) of the rat; experiment: Concentration of dopamine, its metabolites, 5-HT and 5-HIAA in the striatum of benserazide-pretreated rats; format: in vivo; details: for 3-MT concentration in striatum (MV) / 5-HIAA concentration in striatum (MV) / 5-HT concentration in striatum (MV) / Dopac concentration in striatum (MV) / Dopamine concentration in striatum (MV) / HVA concentration in striatum (MV): 30 min after benserazide, tissue 90 min later
Description: (§1) The rats were pretreated with benserazide, an inhibitor of the aromatic amino acid decarboxylase, in order to reduce the degradation of the test compounds in the blood and to thus provide sufficient concentration of dopamine and α-lipoic acid in the brain. After 30 minutes, L-DOPA (standard therapy for Parkinson's disease) or compound 1, compound 2, compound 3 in doses equivalent to L-DOPA were injected into the peritoneum (intraperitoneal, ip). After a further 90 minutes, blood and brain tissue (striatum) were extracted. A lower dose (25 mg/kg body weight) and a higher dose (50 mg/kg body weight) of L-DOPA were selected.

blood plasma of rats = experiment: Concentration of dopamine, its metabolites, 5-HT and 5-HIAA in the blood plasma of benserazide-pretreated rats; format: in vivo, rat; details: for 3-MT concentration in blood plasma (MV) / 5-HIAA concentration in blood plasma (MV) / 5-HT concentration in blood plasma (MV) / Dopac concentration in blood plasma (MV) / Dopamine concentration in blood plasma (MV) / HVA concentration in blood plasma (MV): 30 min after benserazide, blood 90 min later; for Formation of dopamine in the blood plasma (in words): low and higher doses
Description: as §1

[2] = test system: nucleus accumbens of a freely moving rat; experiment: In vivo microdialysis of dopamine release in the nucleus accumbens of the freely moving rat; details: for Dose dependence of dopamine release in nucleus accumbens (in words): 25 and 50 mg/kg L-DOPA or equimolar doses, FIGS. 1-4; for Time-course of dopamine concentration in nucleus accumbens microdialysate (in words): ip, 30 min after benserazide, L-DOPA: higher dose (FIG. 1), compound 1: FIGS. 3 and 4
Description: The arrow indicates the moment of injection (ip: intraperitoneal) of L-DOPA (25 mg/kg body weight) 30 minutes after the administration of benserazide (10 mg/kg body weight, ip).
The arrow indicates the moment of injection (ip: intraperitoneal) of L-DOPA (50 mg/kg body weight) 30 minutes after the administration of benserazide (10 mg/kg body weight, ip, in 0.9% NaCl).
The arrow indicates the moment of injection (ip: intraperitoneal) of diacetyl-DOPA-ethylene glycol α-lipoic acid (equimolar dose to 25 mg/kg body weight L-DOPA) 30 minutes after the administration of benserazide (10 mg/kg body weight, ip in 0.9% NaCl).
The arrow indicates the moment of injection (ip: intraperitoneal) of diacetyl-DOPA-ethylene glycol α-lipoic acid (equimolar dose to 50 mg/kg body weight L-DOPA) 30 minutes after the administration of benserazide (10 mg/kg body weight, ip).
Furthermore, by the method of in vivo micro dialysis of the conscious and freely moving rat, experiments were carried out to test whether the production and release of dopamine in the nucleus accumbens, a part of the brain with dense innervation of dopamine-containing nerve cells, is increased upon administration of L-DOPA or compound 1. The advantage of said method consists in the fact that the time-course of the release of the messenger dopamine from the active nerve cells can be observed in the conscious and freely moving rat. […] Said strong increase and the high concentrations are not desired since several degradation products of dopamine and the oxygen radicals formed during the degradation of dopamine have damaging effects on nerve cells.

[3] = 25 mg/kg L-DOPA or L-DOPA eq. ip
[4] = 50 mg/kg L-DOPA or L-DOPA eq. ip
[5] = higher doses (50 mg/kg L-DOPA eq.)
[6] = low doses (25 mg/kg L-DOPA eq.)

| SMILES | 3-MT concentration in striatum (MV) [1, 3] [pg per mg striatum] | 5-HIAA concentration in striatum (MV) [1, 3] [pg per mg striatum] | 5-HT concentration in striatum (MV) [1, 3] [pg per mg striatum] | Dopac concentration in striatum (MV) [1, 3] [pg per mg striatum] | Dopamine concentration in striatum (MV) [1, 3] [pg per mg striatum] | HVA concentration in striatum (MV) [1, 3] [pg per mg striatum] | 3-MT concentration in striatum (MV) [1, 4] [pg per mg striatum] | 5-HIAA concentration in striatum (MV) [1, 4] [pg per mg striatum] | 5-HT concentration in striatum (MV) [1, 4] [pg per mg striatum] | Dopac concentration in striatum (MV) [1, 4] [pg per mg striatum] | Dopamine concentration in striatum (MV) [1, 4] [pg per mg striatum] | HVA concentration in striatum (MV) [1, 4] [pg per mg striatum] | Effect on the concentrations of dopamine in striatum (in words) [1, 5] | Effect on the metabolites DOPAC and HVA in striatum (in words) [1, 5] | Effect on the concentrations of dopamine in striatum (in words) [1, 6] | Effect on the metabolites DOPAC and HVA in striatum (in words) [1, 6] | 3-MT concentration in blood plasma (MV) (blood plasma of rats; [3]) [pg per ml plasma] | 5-HIAA concentration in blood plasma (MV) (blood plasma of rats; [3]) [pg per ml plasma] | 5-HT concentration in blood plasma (MV) (blood plasma of rats; [3]) [pg per ml plasma] | Dopac concentration in blood plasma (MV) (blood plasma of rats; [3]) [pg per ml plasma] | also measured |
| --- | --- | --- | --- | --- | --- | --- | --- | --- | --- | --- | --- | --- | --- | --- | --- | --- | --- | --- | --- | --- | --- |
| CC(=O)Oc1ccc(CC(NC(=O)CCCCC2CCSS2)C(=O)O)cc1OC(C)=O [compound 2, O,O′-diacetyl-L-DOPA-(R,S)-lipoic acid amide] | 267 | 780 | 438 | 6127 | 10512 | 1577 | 176 | 782 | 448 | 5697 | 11485 | 1742 | led to an increase | increased | do not lead to an increase | increased | 11480 | 8374 | 7966 | 52963 | Effect on the concentration of 5-HT in striatum (in words) ([1]; rat, in vivo): increased the concentration of 5-HT; Dopamine concentration in blood plasma (MV) (blood plasma of rats; [3]): 23006 pg per ml plasma; HVA concentration in blood plasma (MV) (blood plasma of rats; [3]): 44304 pg per ml plasma; 3-MT concentration in blood plasma (MV) (blood plasma of rats; [4]): 6121 pg per ml plasma; 5-HIAA concentration in blood plasma (MV) (blood plasma of rats; [4]): 12656 pg per ml plasma; 5-HT concentration in blood plasma (MV) (blood plasma of rats; [4]): 7494 pg per ml plasma; Dopac concentration in blood plasma (MV) (blood plasma of rats; [4]): 57729 pg per ml plasma; Dopamine concentration in blood plasma (MV) (blood plasma of rats; [4]): 21919 pg per ml plasma; HVA concentration in blood plasma (MV) (blood plasma of rats; [4]): 42184 pg per ml plasma; Formation of dopamine in the blood plasma (in words) (blood plasma of rats): Dopamine is also formed |
| O=C(CCCCC1CCSS1)NC(Cc1ccc(O)c(O)c1)C(=O)O [compound 3, L-DOPA-(D,L)-lipoic acid amide] | 292 | 620 | 340 | 1508 | 10539 | 1042 | 237 | 490 | 278 | 1788 | 11488 | 1244 | led to an increase | increased | do not lead to an increase | only HVA |  |  |  |  |  |
| CC(=O)Oc1ccc(C[C@H](N)C(=O)OCCOC(=O)CCCCC2CCSS2)cc1OC(C)=O (stereo partly drawn) [compound 1, O,O′-diacetyl-L-DOPA-ethylene glycol lipoic acid ester] | 308 | 706 | 355 | 4532 | 11244 | 2567 | 194 | 764 | 411 | 9549 | 11695 | 4314 |  | increased | do not lead to an increase | increased | 8563 | 13852 | 8894 | 57257 | Dopamine concentration in blood plasma (MV) (blood plasma of rats; [3]): 29782 pg per ml plasma; HVA concentration in blood plasma (MV) (blood plasma of rats; [3]): 16836 pg per ml plasma; 3-MT concentration in blood plasma (MV) (blood plasma of rats; [4]): 6288 pg per ml plasma; 5-HIAA concentration in blood plasma (MV) (blood plasma of rats; [4]): 15367 pg per ml plasma; 5-HT concentration in blood plasma (MV) (blood plasma of rats; [4]): 12094 pg per ml plasma; Dopac concentration in blood plasma (MV) (blood plasma of rats; [4]): 58266 pg per ml plasma; Dopamine concentration in blood plasma (MV) (blood plasma of rats; [4]): 22129 pg per ml plasma; HVA concentration in blood plasma (MV) (blood plasma of rats; [4]): 71658 pg per ml plasma; Formation of dopamine in the blood plasma (in words) (blood plasma of rats): Dopamine is also formed; Dose dependence of dopamine release in nucleus accumbens (in words) [2]: released in a dose-dependent manner; Time-course of dopamine concentration in nucleus accumbens microdialysate (in words) [2]: two-peak-maximum and a less steep increase as well as a longer lasting effect |
| NC(Cc1ccc(O)c(O)c1)C(=O)O [L-DOPA, 2-amino-3-(3,4-dihydroxyphenyl)-propionic acid, reference compound] | 312 | 711 | 365 | 3017 | 10108 | 1752 | 259 | 593 | 366 | 9159 | 11844 | 4550 | led to an increase | increased | do not lead to an increase | increased | 11897 | 18687 | 3089 | 20833 | Dopamine concentration in blood plasma (MV) (blood plasma of rats; [3]): 20437 pg per ml plasma; HVA concentration in blood plasma (MV) (blood plasma of rats; [3]): 9592 pg per ml plasma; 3-MT concentration in blood plasma (MV) (blood plasma of rats; [4]): 14711 pg per ml plasma; 5-HIAA concentration in blood plasma (MV) (blood plasma of rats; [4]): 11426 pg per ml plasma; 5-HT concentration in blood plasma (MV) (blood plasma of rats; [4]): 15108 pg per ml plasma; Dopac concentration in blood plasma (MV) (blood plasma of rats; [4]): 38697 pg per ml plasma; Dopamine concentration in blood plasma (MV) (blood plasma of rats; [4]): 31519 pg per ml plasma; HVA concentration in blood plasma (MV) (blood plasma of rats; [4]): 69329 pg per ml plasma; Formation of dopamine in the blood plasma (in words) (blood plasma of rats): dopamine is formed; Dose dependence of dopamine release in nucleus accumbens (in words) [2]: released in a dose-dependent manner; Time-course of dopamine concentration in nucleus accumbens microdialysate (in words) [2]: strongly increases |
